Reference: patent US12351597B2, “Substituted biphenyl or phenylheteroaryl-mannosides as antagonists of FimH” (GLAXOSMITHKLINE INTELLECTUAL PROPERTY DEVELOPMENT LIMITED, priority 2019, dated 2025)

Columns and labels:
FimH = target: T1, FimH (Escherichia coli, UniProt Q1R2J4); assay: Hemagglutination inhibition assay (HAI); type: cell-based; conditions: HAI titer / EC>90: concentration reducing bacterial agglutination of guinea pig red blood cells by >90%; UTI89 bacteria
T1 construct: endogenous in cells; host or cells: E. coli UTI89 whole bacteria (piliated), with guinea pig red blood cells
Excerpt: “HAI titer or EC>90” is that concentration of the FimH inhibitor/antagonist which reduces the bacterial agglutination of guinea pig red blood cells by greater than 90%.
The activities of the Examples 1-40 compounds above as FimH antagonists/inhibitors were obtained by the following assay(s), and values are provided in Table 1. The values not provided mean that the activities have not yet been tested.
Hemagglutination Inhibition Assay (HAI)
The hemagglutination inhibition (HAI) assay was performed with UTI89 bacteria and guinea pig red blood cells, as previously described (S. J. Hultgren, W. R. Schwan, A. J. Schaeffer, J. L. Duncan Infect. Immun. 1986, 54, 613-620 and Jarvis, C.; Han, Z.; Kalas, V.; Klein, R.; Pinkner, J. S.; Ford, B.; Binkley, J.; Cusumano, C. K.; Cusumano, Z.; Mydock-McGrane, L.; Hultgren, S. J.; Janetka, J. W., ChemMedChem 2016, 11, 367-373). Values not listed were not tested.

[1] = Rat pharmacokinetics (IV infusion 1 mg/kg, then PO 5 mg/kg; blood and urine); type: in vivo, Male Wistar Han rats; conditions: for PK DNAUC h * uM (DNAUC oral, dose normalized): PO 5 mg/kg, blood, AUC divided by dose in mg/kg; for bioavailability: male, Wistar Han, whole blood, oral bioavailability from dose-normalized AUC, PO 5 mg/kg vs IV infusion 1 mg/kg; for Ue % (Ue % po): percentage of oral dose eliminated unchanged in urine, or estimate from IV urinary % times oral bioavailability
Excerpt: General Assays for Obtaining AUC Oral h*μm, % F, and Ue % PO Values
Male Wistar Han rats were purchased from Vital River Laboratory Animal Technology Co. Ltd (Beijing, China). The animals were approx. 6-8 weeks old with body weights of 200-300 g on the dosing date. The animals were housed in a 12-hour light/12-hour dark cycle environment and had free access to food and water. All animals were fed prior to dosing. Studies were approved by the Pharmaron Institutional Animal Care and Use Committee (IACUC).
Test article was administered as an intravenous infusion for 1 hour (1 mg/kg) at 5 mL/kg/h. After 48 h, animals received a single oral dose (5 mg/kg, free form) at a dose volume of 10 mL/kg, respectively. Blood samples were collected at various time points after IV infusion and PO administrations. Urine samples were collected at various time points after IV infusion and PO administrations (for some compounds).
Test article was dissolved in DMSO with vortexing and sonification to obtain a stock solution. An aliquot of the stock solution was mixed with 10% HP-β-CD in saline with vortexing to obtain a solution with concentration at 0.2 mg/mL of test article.
Test article was added into 1% Methyl Cellulose with vortexing and sonication to obtain a homogeneous suspension with concentration at 0.5 mg/mL of test article.
For IV infusion (1 mg/kg) administration, blood samples were collected from each animal at 0, 0.25, 0.5, 0.75, 1, 1.08, 1.25, 1.5, 1.75, 2, 3, 5, 8, 12, 24 hour post-dose.
For PO (5 mg/kg) administration, blood samples were collected from each animal at 0, 0.25, 0.5, 1, 1.5, 2, 3, 4, 6, 8, 12, 24 hour post-dose.
Blood samples (50 μL) were collected from each animal via jugular vein. These blood samples were placed into tubes containing K2EDTA. Whole blood was mixed with same volume of water and inverted several times. The blood samples were stored at −75±15° C. until analysis.
For IV infusion (1 mg/kg) administration, urine samples were collected from each animal at 0-4, 4-8, 8-12, 12-24 hour post-dose.
For PO (5 mg/kg) administration, urine samples were collected (for some compounds) from each animal at 0-4, 4-8, 8-12, 12-24 hour post-dose.
55 μL of standards, 55 μL of QC samples or 55 μL of unknown samples (50 μL of blood or urine with 5 μL 50% acetonitrile) were mixed to 200 μL of acetonitrile containing IS (dexamethasone) to precipitate proteins. Then the samples were vortexed for 30 sec. After centrifugation at 4° C., 4700 rpm for 30 min, and 5 μL of the supernatant was injected into the LC-MS/MS system for quantitative analysis.
Test article blood and urine concentrations for each animal following IV infusion at 1 mg/kg and PO at 5 mg/kg were used to calculate pharmacokinetic parameters by employing a non-compartmental analysis (Phoenix™ WinNonlin® 7.0). The linear trapezoidal algorithm was used for AUC calculation. • AUC oral h*uM: Area under the curve (AUC) of drug concentration in blood vs. time (units: h*μM) following oral administration • DNAUC Dose normalized area under the curve is calculate by divided the area under the curve divided by the dose in the mg/kg • % F: Oral bioavailability (%) derived from the ratio of dose-normalized AUC following PO and IV administration • Ue % PO: Percentage of oral dose eliminated unchanged in urine or an estimate of that parameter generated from using the percentage of the iv dose eliminated in the urine times the oral bioavailability Production Methods: […]

SMILES	HAI nM (FimH)	PK DNAUC h * uM (DNAUC oral, dose normalized) [1]	bioavailability [1] [%]	Ue % (Ue % po) [1]
Cc1cc(-c2cnc(C(F)(F)F)cn2)ccc1O[C@H]1O[C@H](CO)[C@@H](O)[C@H](O)[C@@H]1O [Example 1, (2R,3S,4S,5S,6R)-2-(Hydroxymethyl)-6-(2-methyl-4-(5-(trifluoromethyl)pyrazin-2-yl)phenoxy)tetrahydro-2H-pyran-3,4,5-triol]	“++++” (<50)	“+++” (>0.2 h · μM)	> 30	“+++” (>5%)
OC[C@H]1O[C@H](Oc2ccc(-c3cnc(C(F)(F)F)cn3)cc2C(F)(F)F)[C@@H](O)[C@@H](O)[C@@H]1O [Example 3, (2R,3S,4S,5S,6R)-2-(Hydroxymethyl)-6-(2-(trifluoromethyl)-4-(5-(trifluoromethyl)pyrazin-2-yl)phenoxy)tetrahydro-2H-pyran-3,4,5-triol]	“+++” (50-200)	“++” (0.1 ≤ × ≤ 0.2h · μM)	10 to 30	
Cc1cc(-c2cc(F)cc(C#N)c2)ccc1O[C@H]1O[C@H](CO)[C@@H](O)[C@H](O)[C@@H]1O [Example 4, 5-Fluoro-3′-methyl-4′-(((2R,3S,4S,5S,6R)-3,4,5-trihydroxy-6-(hydroxymethyl)tetrahydro-2H-pyran-2-yl)oxy)-[1,1′-biphenyl]-3-carbonitrile]	“+++” (50-200)	“+++” (>0.2 h · μM)	> 30	
Cc1cc(-c2cc(C(F)(F)F)ccn2)ccc1O[C@H]1O[C@H](CO)[C@@H](O)[C@H](O)[C@@H]1O [Example 5, (2R,3S,4S,5S,6R)-2-(hydroxymethyl)-6-(2-methyl-4-(4-(trifluoromethyl)pyridin-2-yl)phenoxy)tetrahydro-2H-pyran-3,4,5-triol]	“+++” (50-200)	“+++” (>0.2 h · μM)	> 30	
N#Cc1cc(F)cc(-c2cc(F)c(O[C@H]3O[C@H](CO)[C@@H](O)[C@H](O)[C@@H]3O)c(C(F)(F)F)c2)c1 [Example 6]	“++++” (<50)	“+” (<01 h · μM)		
Cc1cc(-c2cnc(N3CCCC3)cn2)ccc1O[C@H]1O[C@H](CO)[C@@H](O)[C@H](O)[C@@H]1O [Example 7]	“++++” (<50)	“+” (<01 h · μM)		
Cc1cc(-c2cnc(C3CC3)cn2)ccc1O[C@H]1O[C@H](CO)[C@@H](O)[C@H](O)[C@@H]1O [Example 12]	“++++” (<50)	“++” (0.1 ≤ × ≤ 0.2h · μM)	> 30	“++” (0.5 ≤ × ≤ 5%)
Cc1cc(-c2ccnc(C(F)(F)F)n2)ccc1O[C@H]1O[C@H](CO)[C@@H](O)[C@H](O)[C@@H]1O [Example 14]	“+++” (50-200)	“+” (<01 h · μM)		
Cc1cc(-c2cnc(C(F)(F)F)nc2)ccc1O[C@H]1O[C@H](CO)[C@@H](O)[C@H](O)[C@@H]1O [Example 16]	“++++” (<50)	“++” (0.1 ≤ × ≤ 0.2h · μM)		
OC[C@H]1O[C@H](Oc2c(F)cc(-c3ccc(C(F)(F)F)cn3)cc2C(F)(F)F)[C@@H](O)[C@@H](O)[C@@H]1O [Example 28]	“++++” (<50)	“+++” (>0.2 h · μM)	10 to 30	
OC[C@H]1O[C@H](Oc2c(F)cc(-c3ccc(C(F)(F)F)nc3)cc2C(F)(F)F)[C@@H](O)[C@@H](O)[C@@H]1O [Example 35]		“+” (<01 h · μM)		
Cc1cc(-c2cncc(C#N)c2)ccc1O[C@H]1O[C@H](CO)[C@@H](O)[C@H](O)[C@@H]1O [Example 37]	“++++” (<50)	“+” (<01 h · μM)		
N#Cc1cncc(-c2cc(F)c(O[C@H]3O[C@H](CO)[C@@H](O)[C@H](O)[C@@H]3O)c(C(F)(F)F)c2)c1 [Example 38]	“++++” (<50)	“+” (<01 h · μM)		
OC[C@H]1O[C@H](Oc2ccc(-c3cccc(C(F)(F)F)n3)cc2C(F)(F)F)[C@@H](O)[C@@H](O)[C@@H]1O [Example 39]	“+++” (50-200)			
Cc1cc(-c2cccc(C(F)(F)F)n2)ccc1O[C@H]1O[C@H](CO)[C@@H](O)[C@H](O)[C@@H]1O [Example 40]	“+++” (50-200)			
